Assay results published in patent publication US9517221B2, “(2R)-2-propyloctanoic acid for functional brain disease” (ONO PHARMACEUTICAL CO., LTD., priority 2006, dated 2016).
Structures can show the parent of a compound that is named as a salt.

Legend:
[1] = tested on: olfactory bulbectomized rats; test: Hyperemotional reactivity (hyperemotional score) of olfactory bulbectomized rats; format: in vivo, rat; set-up: key to Hyperemotional score (mean ± S. E.), One day administration, Before administration / Hyperemotional score (mean ± S. E.), One day administration, After administration / Hyperemotional score (mean ± S. E.), Seven days administration, Before administration / Hyperemotional score (mean ± S. E.), Seven days administration, After administration: irritability score per Gomita et al. (1983) criteria
Procedure: SPF rats (Crlj: WI) were used in the test. The animal for olfactory bulbectomy was anesthetized with pentobarbital sodium (Nembutal R Injection, Dainippon Pharmaceutical, dose: 1 mL/kg (intraperitoneal administration)), and the head was fixed using a brain stereotaxic apparatus (ASI Instruments, Inc., NARISHIGE). After incising the head skin, holes are opened at right and left olfactory bulb regions of the skull using a dental drill (manufactured by MINITOR), and the right and left olfactory bulbs were removed by sucking them using an aspirator connected to a tip-removed oral sonde, and the head skin was stitched thereafter. In this connection, in the case of the animals for sham-operation, anesthesia, brain fixation and head skin incision were carried out in the same manner as in the animals for olfactory bulbectomy, holes are opened at right and left olfactory bulb regions of the skull and the head skin was stitched without carrying out suction removal of the olfactory bulbs. The rats after olfactory bulbectomy were put into a series of five stainless steel cages, each of which was partitioned into two parts with an acrylic board for individual rearing space, and individually reared under a dark condition. The rats were subjected to the following tests of (2) and (3).
• (a) Sham-operation group (12 animals); • (b) Vehicle control group (12 animals); • (c) 3 mg/kg administration group (12 animals) of (2R)-2-propyloctanoic acid; • (d) 10 mg/kg administration group (12 animals) of (2R)-2-propyloctanoic acid; • (e) 10 mg/kg administration group (12 animals) of Milnacipran hydrochloride. [Drug Administration]
As shown below, drug solution or vehicle was administered once a day for 8 days, a total of 8 times, at a respective liquid dose of 5 mL/kg. • (a) Sham-operation group: vehicle (0.1% by volume Tween 80) aqueous solution; • (b) Vehicle control group: vehicle (0.1% by volume Tween 80) aqueous solution; • (c) 3 mg/kg administration group of (2R)-2-propyloctanoic acid: a drug solution in which (2R)-2-propyloctanoic acid was prepared to be 0.6 mg/mL with the vehicle; • (d) 10 mg/kg administration group of (2R)-2-propyloctanoic acid: a drug solution in which (2R)-2-propyloctanoic acid was prepared to be 2.0 mg/mL with the vehicle; • (e) 10 mg/kg administration group of milnacipran hydrochloride: a drug solution in which Milnacipran hydrochloride was prepared to be 2.3 mg/mL with the vehicle (Milnacipran itself is included in 2.0 mg/mL). (2) Examination of the Activity for Hyperemotional Reactivity <Evaluation Method>
Evaluation of the hyperemotional reactivity was carried out (1) before the grouping, (2) from 1 hour to 1 hour and 10 minutes after administration of the 1 day drug administration, (3) before administration of the 7 days administration and (4) from 1 hour to 1 hour and 10 minutes after the administration (a total of 4 times), by scoring the degree of irritability once a rat in accordance with the following evaluation criteria of hyperemotional reactivity (hyperemotional score: prepared based on the method of Gomita et al. (Folia Pharmacologica Japonica, 82, 267, 1983). Additionally, all of the conditions of the evaluation were shot and recorded using a video camera (SSC-DC430, SONY) and handled as reference data.

[2] = tested on: olfactory bulbectomized rats; test: Anxiolytic behavior on elevated plus maze of olfactory bulbectomized rats; format: in vivo, rat; settings: dose 10 mg/kg once a day for 8 days; 5 minutes test 1 hour after 8 days administration
Procedure: SPF rats (Crlj: WI) were used in the test. The animal for olfactory bulbectomy was anesthetized with pentobarbital sodium (Nembutal R Injection, Dainippon Pharmaceutical, dose: 1 mL/kg (intraperitoneal administration)), and the head was fixed using a brain stereotaxic apparatus (ASI Instruments, Inc., NARISHIGE). After incising the head skin, holes are opened at right and left olfactory bulb regions of the skull using a dental drill (manufactured by […]), and the right and left olfactory bulbs were removed by sucking them using an aspirator connected to a tip-removed oral sonde, and the head skin was stitched thereafter. In this connection, in the case of the animals for sham-operation, anesthesia, brain fixation and head skin incision were carried out in the same manner as in the animals for olfactory bulbectomy, holes are opened at right and left olfactory bulb regions of the skull and the head skin was stitched without carrying out suction removal of the olfactory bulbs. The rats after olfactory bulbectomy were put into a series of five stainless steel cages, each of which was partitioned into two parts with an acrylic board for individual rearing space, and individually reared under a dark condition. The rats were subjected to the following tests of (2) and (3). • (a) Sham-operation group (12 animals); • (b) Vehicle control group (12 animals); • (c) 3 mg/kg administration group (12 animals) of (2R)-2-propyloctanoic acid; • (d) 10 mg/kg administration group (12 animals) of (2R)-2-propyloctanoic acid; • (e) 10 mg/kg administration group (12 animals) of Milnacipran hydrochloride. [Drug Administration] As shown below, drug solution or vehicle was administered once a day for 8 days, a total of 8 times, at a respective liquid dose of 5 mL/kg. • (a) Sham-operation group: vehicle (0.1% by volume Tween 80) aqueous solution; • (b) Vehicle control group: vehicle (0.1% by volume Tween 80) aqueous solution; • (c) 3 mg/kg administration group of (2R)-2-propyloctanoic acid: a drug solution in which (2R)-2-propyloctanoic acid was prepared to be 0.6 mg/mL with the vehicle; • (d) 10 mg/kg administration group of (2R)-2-propyloctanoic acid: a drug solution in which (2R)-2-propyloctanoic acid was prepared to be 2.0 mg/mL with the vehicle; • (e) 10 mg/kg administration group of milnacipran hydrochloride: a drug solution in which Milnacipran hydrochloride was prepared to be 2.3 mg/mL with the vehicle (Milnacipran itself is included in 2.0 mg/mL). (2) Examination of the Activity for Hyperemotional Reactivity <Evaluation Method> Evaluation of the anxiolytic behavior on an elevated plus maze was carried out once per animal for 5 minutes from 1 hour to 1 hour and 10 minutes after 8 days of the administration, in accordance with the following method. Each animal was softly put on a platform of elevated plus maze which is described later, toward one of the open arms. Thereafter, behavior of the animal was shot using a video camera (CCD-DC430, SONY) set up the elevated plus maze, and the images were analyzed by a video image behavior analyzing device (Etho Vision, manufactured by Noldus). Additionally, the images from the video camera were recorded and handled as reference data. In this connection, when the animal fell, it was regarded as staying on the open arm, and the animal was quickly returned to the place or the open arm where it was present just before the falling. The evaluation was carried out on the respective items shown by A to H (A: frequency of approach to the open arm, B: frequency of approach to the closed arm, C: frequency of approach to the platform, D: stayed time (second) on the open arm, E: stayed time (second) on the closed arm, F: stayed time (second) on the platform, G: defecation frequency on the open arm, platform and closed arm, and H: urination frequency on the open arm, platform and closed arm), by measuring A to F using the video image behavior analyzing device, and by measuring G and H after completion of the measurement. […]

CCN(CC)C(=O)C1(c2ccccc2)CC1CN (stereo not drawn) [Milnacipran hydrochloride, reference compound] was tested, and the “Hyperemotional score (mean ± S. E.), Seven days administration, After administration” value ([1]; dose 10 mg/kg once a day, 1 hour to 1 hour 10 minutes after 7 days administration) was 7.6 ± 0.8, the “Hyperemotional score (mean ± S. E.), Seven days administration, Before administration” value ([1]; dose 10 mg/kg once a day, before administration of the 7 days administration) was 10.2 ± 1.1 and the “Hyperemotional score (mean ± S. E.), One day administration, After administration” value ([1]; dose 10 mg/kg, 1 hour to 1 hour 10 minutes after 1 day administration) was 14.3 ± 1.0. For the same compound, the “Hyperemotional score (mean ± S. E.), One day administration, Before administration” value ([1]; dose 10 mg/kg, baseline before grouping, 12 animals) was 20.0 ± 0.0, the “Time (seconds) stayed on closed arm (mean ± S. E.)” value [2] was 196.0 ± 19.8 s and the “Time (seconds) stayed on open arm (mean ± S. E.)” value [2] was 72.7 ± 18.3 s.
